Legend:
Assay type in all cases: in vivo
[1] = tested on: bleomycin rat model; test: Bleomycin rat model: white blood cell counts in lung lavage; details: for Lymphocyte Count (Average) / Macrophage Count (Average) / Neutrophil Count (Average) / Total Cell Count (Average): oral gavage twice a day, lung lavage
Source text: The bleomycin rat model was used in this study to evaluate (R)-N-((2S,3S)-2-(fluoromethyl)-2-hydroxy-5-oxo-tetrahydrofuran-3-yl)-5-isopropyl-3-(isoquinolin-1-yl)-4,5-dihydroisoxazole-5-carboxamide as a possible therapeutic drug for the treatment of idiopathic pulmonary fibrosis (IPF) and other fibrotic lung diseases. The bleomycin animal model of IPF is an art-recognized model for evaluating potentially therapeutic drugs for the treatment of IPF (see, e.g., F. Chua et al., Pulmonary Fibrosis, Searching for Model Answers, Am. J. Respir. Cell. Mol. Biol., 33:9-13 (2005); A. Moeller et al., The bleomycin animal model: A useful tool to investigate treatment options for idiopathic pulmonary fibrosis, International Journal of Biochemistry and Cell Biology, 40: 362-382 (2008)). In this Example, (R)-N-((2S,3S)-2-(fluoromethyl)-2-hydroxy-5-oxo-tetrahydrofuran-3-yl)-5-isopropyl-3-(isoquinolin-1-yl)-4,5-dihydroisoxazole-5-carboxamide is referred to as the “test compound” for ease of reference. […] The abbreviations used in Table 1 are Bleo (bleomycin), IT (intratracheal), mg/kg (milligram per kilogram), N (number) and n/a (not applicable). [table] The rats receiving the test compound were gavaged twice a day from day zero (the day of bleomycin administration) through the day prior to necropsy. On days 14 and 28 the designated rats were euthanized with a pentobarbital-based solution, the chest cavity was opened and examined for gross pathology. The right lung was removed, canulated, and lavaged for determination of white blood cell counts. The lavaged tissue was flash frozen and analyzed for collagen content by measuring the amount of collagen. The left lung was fixed for histopathology. Homogenates from the lungs were analyzed for cytokines. Intratracheal administration of bleomycin induces a two-stage response in the lungs of rats. The first stage is an inflammatory response which peaks at about 14 days after bleomycin administration, and the second stage is a fibrotic response that is apparent by 28 days after bleomycin administration. The inflammation markers that were measured in this study were the influx of leukocytes (neutrophils, macrophages and lymphocytes) into the airways, and the induction of the cytokines MCP-1 and MCP-3 (where MCP stands for Monocyte Chemoattractant Protein). Tables 2, 3, 4 and 5 show the total cell count, neutrophil count, macrophage count and the lymphocyte count, respectively, from the treated rats at 14 days and 28 days (Values for cell numbers are ×10^6). The abbreviation SEM stands for Standard Error of the Mean. In Tables 2 thru 8 the t-test was an unpaired, two-tailed, t-test performed using a GraphPad Prism version 5.01 for Windows (GraphPad Software, San Diego, Calif. USA).

[2] = tested on: MCP-1; test: Bleomycin rat model: MCP-1 level in bronchoalveolar lavage fluid (Luminex/Procarta cytokine assay); details: for MCP-1 concentration (Average): oral gavage twice a day, BAL
Source text: (§1) The bleomycin rat model was used in this study to evaluate (R)-N-((2S,3S)-2-(fluoromethyl)-2-hydroxy-5-oxo-tetrahydrofuran-3-yl)-5-isopropyl-3-(isoquinolin-1-yl)-4,5-dihydroisoxazole-5-carboxamide as a possible therapeutic drug for the treatment of idiopathic pulmonary fibrosis (IPF) and other fibrotic lung diseases. The bleomycin animal model of IPF is an art-recognized model for evaluating potentially therapeutic drugs for the treatment of IPF (see, e.g., F. Chua et al., Pulmonary Fibrosis, Searching for Model Answers, Am. J. Respir. Cell. Mol. Biol., 33:9-13 (2005); A. Moeller et al., The bleomycin animal model: A useful tool to investigate treatment options for idiopathic pulmonary fibrosis, International Journal of Biochemistry and Cell Biology, 40: 362-382 (2008)).
(§2) The rats receiving the test compound were gavaged twice a day from day zero (the day of bleomycin administration) through the day prior to necropsy. On days 14 and 28 the designated rats were euthanized with a pentobarbital-based solution, the chest cavity was opened and examined for gross pathology. The right lung was removed, canulated, and lavaged for determination of white blood cell counts. The lavaged tissue was flash frozen and analyzed for collagen content by measuring the amount of collagen. The left lung was fixed for histopathology. Homogenates from the lungs were analyzed for cytokines.
(§3) Intratracheal administration of bleomycin induces a two-stage response in the lungs of rats. The first stage is an inflammatory response which peaks at about 14 days after bleomycin administration, and the second stage is a fibrotic response that is apparent by 28 days after bleomycin administration. The inflammation markers that were measured in this study were the influx of leukocytes (neutrophils, macrophages and lymphocytes) into the airways, and the induction of the cytokines MCP-1 and MCP-3 (where MCP stands for Monocyte Chemoattractant Protein). Tables 2, 3, 4 and 5 show the total cell count, neutrophil count, macrophage count and the lymphocyte count, respectively, from the treated rats at 14 days and 28 days (Values for cell numbers are ×10^6). The abbreviation SEM stands for Standard Error of the Mean. In Tables 2 thru 8 the t-test was an unpaired, two-tailed, t-test performed using a GraphPad Prism version 5.01 for Windows (GraphPad Software, San Diego, Calif. USA).
(§4) Additionally, MCP-1 and MCP-3 levels in the rat Bronchoalveolar Lavage Fluid (BAL) were measured using Luminex xMap Technology CS1000 (Austin, Tex.) and a Procarta Cytokine Assay Kit (rat 15-plex) manufactured by Panomics, Inc. (Fremont, Calif.) that included analytes for: IL-1α, IL-1β, IL-6, TNFα, KC, MCP-1, MCP-3, MIP-1α, RANTES, VEGF, TGFb, IL-4, IL-10, IFNg, and GM-CSF. Three replicate assay wells (n=3) were analyzed for each experimental sample following the manufacturer's instructions. Quantitation of each analyte was determined against standard curves using MiraiBio's (Alameda, Calif.) Masterplex QT v 3.0 software. For all samples, background signals in the absence of BAL were determined and subtracted from signals obtained in the presence of BAL to obtain the net signal. Statistical significance of biological studies was tested with a two-tailed Student t-test. Tables 6 and 7 show the concentrations of cytokines MCP-1 and MCP-3, respectively, in the airways of the treated rats, expressed in pg/mL.

[3] = tested on: MCP-3; test: Bleomycin rat model: MCP-3 level in bronchoalveolar lavage fluid (Luminex/Procarta cytokine assay); details: for MCP-3 concentration (Average): oral gavage twice a day, BAL
Source text: as §1, §2, §3, §4

[4] = tested on: collagen; test: Bleomycin rat model: lung collagen deposition (pepsin digest, SDS-PAGE densitometry); design: Collagen Response (Average collagen concentration): unit not given here; details: for Collagen Response (Average collagen concentration): oral gavage twice a day, 28 day, lung tissue
Source text: The bleomycin rat model was used in this study to evaluate (R)-N-((2S,3S)-2-(fluoromethyl)-2-hydroxy-5-oxo-tetrahydrofuran-3-yl)-5-isopropyl-3-(isoquinolin-1-yl)-4,5-dihydroisoxazole-5-carboxamide as a possible therapeutic drug for the treatment of idiopathic pulmonary fibrosis (IPF) and other fibrotic lung diseases. The bleomycin animal model of IPF is an art-recognized model for evaluating potentially therapeutic drugs for the treatment of IPF (see, e.g., F. Chua et al., Pulmonary Fibrosis, Searching for Model Answers, Am. J. Respir. Cell. Mol. Biol., 33:9-13 (2005); A. Moeller et al., The bleomycin animal model: A useful tool to investigate treatment options for idiopathic pulmonary fibrosis, International Journal of Biochemistry and Cell Biology, 40: 362-382 (2008)). The rats receiving the test compound were gavaged twice a day from day zero (the day of bleomycin administration) through the day prior to necropsy. On days 14 and 28 the designated rats were euthanized with a pentobarbital-based solution, the chest cavity was opened and examined for gross pathology. The right lung was removed, canulated, and lavaged for determination of white blood cell counts. The lavaged tissue was flash frozen and analyzed for collagen content by measuring the amount of collagen. The left lung was fixed for histopathology. Homogenates from the lungs were analyzed for cytokines. […] Gels were then stained with Coomassie Blue and stained bands migrating coincident with type I collagen standards were compared by densitometry to the Coomassie stained collagen standards in order to quantitate collagen content. Under the reducing conditions employed in the analysis, the quantitated lung sample gel bands represented the alpha 1 and 2 chains of type I collagen and the alpha 1 chain of type Ill collagen. Blots were scanned with a BioRad GS-800 Scanner and their density was quantitated using “Quantity One” computer software from BioRad. Results were averaged for each treatment group and expressed as micrograms of collagen/mg of lung tissue.

[5] = Bleomycin IT 3.5 mg/kg + 10 mg/Kg test compound, 14 day
[6] = Bleomycin IT 3.5 mg/kg + 10 mg/Kg test compound, 28 day
[7] = Bleomycin IT 3.5 mg/kg + 30 mg/Kg test compound, 14 day
[8] = Bleomycin IT 3.5 mg/kg + 30 mg/Kg test compound, 28 day
[9] = orally administered, bleomycin-treated rats, result in words
[10] = bleomycin-treated rats, result in words

With `CC(C)[C@@]1(C(=O)N[C@H]2CC(=O)O[C@]2(O)CF)CC(c2nccc3ccccc23)=NO1` [Test Compound, (R)-N-((2S,3S)-2-(fluoromethyl)-2-hydroxy-5-oxo-tetrahydrofuran-3-yl)-5-isopropyl-3-(isoquinolin-1-yl)-4,5-dihydroisoxazole-5-carboxamide] the “Lymphocyte Count (Average)” value [1, 5] was 0.002 ×10^6, the “Macrophage Count (Average)” value [1, 5] was 0.415 ×10^6 and the “Neutrophil Count (Average)” value [1, 5] was 0.006 ×10^6. For the same compound, the “Total Cell Count (Average)” value [1, 5] was 1.988 ×10^6, the “Lymphocyte Count (Average)” value [1, 6] was 0.007 ×10^6 and the “Macrophage Count (Average)” value [1, 6] was 0.442 ×10^6. For the same compound, the “Neutrophil Count (Average)” value [1, 6] was 0.012 ×10^6, the “Total Cell Count (Average)” value [1, 6] was 2.276 ×10^6 and the “Lymphocyte Count (Average)” value [1, 7] was 0.003 ×10^6. For the same compound, the “Macrophage Count (Average)” value [1, 7] was 0.285 ×10^6, the “Neutrophil Count (Average)” value [1, 7] was 0.005 ×10^6 and the “Total Cell Count (Average)” value [1, 7] was 1.482 ×10^6. For the same compound, the “Lymphocyte Count (Average)” value [1, 8] was 0.004 ×10^6, the “Macrophage Count (Average)” value [1, 8] was 0.476 ×10^6 and the “Neutrophil Count (Average)” value [1, 8] was 0.008 ×10^6. The “Total Cell Count (Average)” value [1, 8] was 2.207 ×10^6, the “influx of lymphocytes into the airways” value [1, 9] was “inhibited the influx” and the “influx of macrophages into the airways” value [1, 9] was “inhibited the influx”. The “influx of neutrophils into the airways” value [1, 9] was “inhibited the influx”, the “MCP-1 concentration (Average)” value [2, 5] was 66.122 pg/mL and the “MCP-1 concentration (Average)” value [2, 6] was 12.800 pg/mL. The “MCP-1 concentration (Average)” value [2, 7] was 13.838 pg/mL, the “MCP-1 concentration (Average)” value [2, 8] was 11.844 pg/mL and the “production of MCP-1 in the lungs” value [2, 10] was “inhibited the production”. For the same compound, the “MCP-3 concentration (Average)” value [3, 5] was 37.987 pg/mL, the “MCP-3 concentration (Average)” value [3, 6] was 7.075 pg/mL and the “MCP-3 concentration (Average)” value [3, 7] was 5.668 pg/mL. For the same compound, the “MCP-3 concentration (Average)” value [3, 8] was 6.497 pg/mL, the “production of MCP-3 in the lungs” value [3, 10] was “inhibited the production” and the “Collagen Response (Average collagen concentration)” value ([4]; Bleomycin IT 3.5 mg/kg + 10 mg/Kg test compound) was 2.353. For the same compound, the “Collagen Response (Average collagen concentration)” value ([4]; Bleomycin IT 3.5 mg/kg + 30 mg/Kg test compound) was 3.891 and the “deposition of collagen during the fibrotic phase of the bleomycin response” value [4, 9] was “inhibited the deposition of collagen”.

Reference: patent US20100160370A1, “METHOD OF TREATMENT AND PHARMACEUTICAL COMPOSITIONS” (Gilead Sciences, Inc., priority 2008, published 2010)
